Laboratory results as given in patent US20080009511A1, “Cancer treatment with compounds inhibiting PKC alpha” (priority 2004, published 2008).

Experiments:
[1] = test system: MDA-MB-468 human breast cancer cells; test: Cell viability assay (trypan blue dye exclusion), viable cells counted at day 6; format: cell-based; settings: 10 micromoles; for Treated (cell number × 10^5): about 4×10^4 cells seeded, untreated 6.1 ± 0.4; for % inhibiton: growth vs untreated
Procedure: (§1) The following cancer cells were maintained in Dulbecco's modified Eagle medium (DMEM) supplemented with 10 percent bovine calf serum. Cells were seeded for 24 hours. Then they were treated with PKC inhibitors or left untreated. The cells were then collected periodically and evaluated using trypan blue dye exclusion to assess viability using the method described by C Y Chen, et al., in J. Biol. Chem. 273:16700-16709. Cultures containing about 4×10^4 cells were treated with 5 micromoles of Gö7874 (except that PC3 prostate cancer cells were treated with 10 micromoles) and the viable cells were counted at day 6. […] Cultures containing about 4×10^4 cells were treated with or without 10 micromoles of Gö6850 and the viable cells were counted at day 6. […] Cultures containing about 4×10^4 cells were treated with or without 10 micromoles of NGIC-I and the viable cells were counted at day 6. […] Cultures containing about 4×10^4 cells were treated with or without 10 micromoles of Ro31-7549 and the viable cells were counted at day 6. […] Cultures containing about 4×10^4 cells were treated with or without 10 micromoles of Ro31-8220 and the viable cells were counted at day 6. […] Cultures containing about 4×10^4 cells were treated with or without 10 micromoles of Ro31-8425 and the viable cells were counted at day 6. […] Cultures containing about 4×10^4 cells were treated with or without 10 micromoles of Ro31-0432 and the viable cells were counted at day 6.

[2] = test system: HepG2 human liver cancer cells; test: as above; format: cell-based; settings: 10 micromoles; for Treated (cell number × 10^5): about 4×10^4 cells seeded, untreated 4.2 ± 0.4; for % inhibiton: growth vs untreated
Procedure: as §1

[3] = test system: AGS human gastric cancer cells; test: as above; format: cell-based; settings: 10 micromoles; for Treated (cell number × 10^5): about 4×10^4 cells seeded, untreated 2.4 ± 0.3; for % inhibiton: growth vs untreated
Procedure: as §1

[4] = test system: Hela human cervical cancer cells; test: as above; format: cell-based; settings: 10 micromoles; for Treated (cell number × 10^5): about 4×10^4 cells seeded, untreated 3.4 ± 0.4; for % inhibiton: growth vs untreated
Procedure: as §1

[5] = test system: Jurkat cells (a human acute T-cell leukemia cell line); test: as above; format: cell-based; settings: 10 micromoles; for Treated (cell number × 10^5): about 4×10^4 cells seeded, untreated 8.8 ± 0.4; for % inhibiton: growth vs untreated
Procedure: as §1

[6] = test system: A431 human epidermoid carcinoma cells; test: as above; format: cell-based; settings: 10 micromoles; for Treated (cell number × 10^5): about 4×10^4 cells seeded, untreated 5.4 ± 0.4; for % inhibiton: growth vs untreated
Procedure: as §1

[7] = test system: H460 human lung cancer cells; test: as above; format: cell-based; settings: 10 micromoles; for Treated (cell number × 10^5): about 4×10^4 cells seeded, untreated 2.4 ± 0.2; for % inhibiton: growth vs untreated
Procedure: as §1

U251 human glioma cells = test: as above; format: cell-based; settings: 10 micromoles; for Treated (cell number × 10^5): about 4×10^4 cells seeded, untreated 9.6 ± 0.5; for % inhibiton: growth vs untreated
Procedure: as §1

[8] = test system: PANC-1 human pancreatic carcinoma cells; test: as above; format: cell-based; settings: 10 micromoles; for Treated (cell number × 10^5): about 4×10^4 cells seeded, untreated 2.1 ± 0.3; for % inhibiton: growth vs untreated
Procedure: as §1

[9] = test system: NBT-II human bladder cancer cells; test: as above; format: cell-based; settings: 10 micromoles; for Treated (cell number × 10^5): about 4×10^4 cells seeded, untreated 2.9 ± 0.4; for % inhibiton: growth vs untreated
Procedure: as §1

[10] = test system: HT29 human colon cancer cells; test: as above; format: cell-based; settings: 10 micromoles; for Treated (cell number × 10^5): about 4×10^4 cells seeded, untreated 3.8 ± 0.4; for % inhibiton: growth vs untreated
Procedure: as §1

[11] = test system: PC3 human prostate cancer cells; test: as above; format: cell-based; settings: 10 micromoles; for Treated (cell number × 10^5): about 4×10^4 cells seeded, untreated 7.1 ± 0.3; for % inhibiton: growth vs untreated
Procedure: as §1

KB oral cancer cells = test: as above; format: cell-based, human; settings: 10 micromoles; for Treated (cell number × 10^5): about 4×10^4 cells seeded, untreated 3.8 ± 0.4; for % inhibiton: growth vs untreated
Procedure: as §1

human cancer cells = test: Cell viability assay, summary over the panel of cancer cells; format: cell-based; settings: 10 micromoles; day 6; cell lines not named as going to apoptosis
Procedure: The following cancer cells were maintained in Dulbecco's modified Eagle medium (DMEM) supplemented with 10 percent bovine calf serum. Cells were seeded for 24 hours. Then they were treated with PKC inhibitors or left untreated. The cells were then collected periodically and evaluated using trypan blue dye exclusion to assess viability using the method described by C Y Chen, et al., in J. Biol. Chem. 273:16700-16709. Cultures containing about 4×10^4 cells were treated with or without 10 micromoles of Gö6850 and the viable cells were counted at day 6. […] Cultures containing about 4×10^4 cells were treated with or without 10 micromoles of NGIC-I and the viable cells were counted at day 6. […] Cultures containing about 4×10^4 cells were treated with or without 10 micromoles of Ro31-7549 and the viable cells were counted at day 6. […] Cultures containing about 4×10^4 cells were treated with or without 10 micromoles of Ro31-8220 and the viable cells were counted at day 6. […] Cultures containing about 4×10^4 cells were treated with or without 10 micromoles of Ro31-8425 and the viable cells were counted at day 6. […] Cultures containing about 4×10^4 cells were treated with or without 10 micromoles of Ro31-0432 and the viable cells were counted at day 6.

Structure (SMILES) | % inhibiton [1] | Treated (cell number × 10^5) [2] | % inhibiton [2] | Treated (cell number × 10^5) [3] | % inhibiton [3] [%] | Treated (cell number × 10^5) [4] | % inhibiton [4] | Treated (cell number × 10^5) [5] | % inhibiton [5] | Treated (cell number × 10^5) [6] | % inhibiton [6] [%] | Treated (cell number × 10^5) [7] | % inhibiton [7] [%] | Treated (cell number × 10^5) (U251 human glioma cells) | % inhibiton (U251 human glioma cells) [%] | Treated (cell number × 10^5) [8] | % inhibiton [8] [%] | Treated (cell number × 10^5) [9] | % inhibiton [9] [%] | Treated (cell number × 10^5) [10] | other results
CN(C)CCCn1cc(C2=C(c3c[nH]c4ccccc34)C(=O)NC2=O)c2ccccc21 [Gö6850, 2-[1-(3-Dimethylaminopropyl)-1H-indol-3-yl]-3-(1H-indol-3-yl)-maleimide] | 25% | 2.4 × 10^5 | 41% | 1.5 × 10^5 | 34 | 0.3 × 10^5 | * (indicates the inhibitor causes significant cell death, and cell number is less than originally seeded cell number.) | 4.1 × 10^5 | 53% | 4.1 × 10^5 | 24 | 1.6 × 10^5 | 31 | 7.2 × 10^5 | 23 | 1.4 × 10^5 | 30 | 1.3 × 10^5 | 57 | 2.4 × 10^5 | Treated (cell number × 10^5) [1]: 4.6 ± 0.2 × 10^5; cell numbers of treated cells [4]: significantly reduced cell numbers; % inhibiton [10]: 22%; Treated (cell number × 10^5) [11]: 2.8 × 10^5; % inhibiton [11]: 60%; Treated (cell number × 10^5) (KB oral cancer cells): 1.7 × 10^5; % inhibiton (KB oral cancer cells): 55%; inhibition of growth in contrast to untreated cells, range over the other treated cancer cells (human cancer cells): 25-60%
N#CCCn1c2ccccc2c2c3c(c4c5ccccc5[nH]c4c21)C(=O)NC3 [NGIC-I, 12-propanenitrile,5,6,7,13-tetrahydro-5-oxo-12H-Indolo[2,3-a]pyrrolo[3,4-c]carbazole] | 78% | 0.9 × 10^5 | 78% | 1.7 × 10^5 | 30 | 0.3 × 10^5 | * (indicates the inhibitor causes significant cell death, and cell number is less than originally seeded cell number.) | 0.2 × 10^5 | * (indicates the inhibitor causes significant cell death, and cell number is less than originally seeded cell number.) | 2.7 × 10^5 | 49 | 1.6 × 10^5 | 32 | 1.6 × 10^5 | 82 | 1.2 × 10^5 | 44 | 0.9 × 10^5 | 73 | 3.2 × 10^5 | originally seeded cells survived [4]: 75%; originally seeded cells survived [5]: About 50%; % inhibiton [10]: 15%; Treated (cell number × 10^5) [11]: 3.7 × 10^5; % inhibiton [11]: 48%; cells that went to apoptosis upon treatment (KB oral cancer cells): all; Treated (cell number × 10^5) (KB oral cancer cells): 0 × 10^5; % inhibiton (KB oral cancer cells): * (indicates the inhibitor causes significant cell death, and cell number is less than originally seeded cell number.); inhibition of growth in contrast to untreated cells, range over the other treated cancer cells (human cancer cells): 25-82%
CN(C)CC1CCn2c(c(C3=C(c4cn(C)c5ccccc45)C(=O)NC3=O)c3ccccc32)C1.Cl (stereo not drawn) [Ro31-0432] | 30% | 2.4 × 10^5 | 43% | 1.7 × 10^5 | 30 | 1.3 × 10^5 | 60% | 1.4 × 10^5 | 81% | 4.2 × 10^5 | 21 | 1.3x ± × 10^5 | 48 | 9.2 × 10^5 | 10 | 1.2 ± 0.1 × 10^5 | 31 | 2.3 × 10^5 | 19 | 3.0 × 10^5 | % inhibiton [10]: 19%; Treated (cell number × 10^5) [11]: 6.0 × 10^5; % inhibiton [11]: 15%; Treated (cell number × 10^5) (KB oral cancer cells): 2.1 × 10^5; % inhibiton (KB oral cancer cells): 44%; inhibition of growth in contrast to untreated cells, range over the other treated cancer cells (human cancer cells): 10-60%
Cn1cc(C2=C(c3cn(CCCN)c4ccccc34)C(=O)NC2=O)c2ccccc21 [Ro31-7549, 2-[1-3(Aminopropyl)indol-3-yl]-3(1-methyl-1H-indol-3-yl)maleimide, Acetate] | * (indicates the inhibitor causes significant cell death, and cell number is less than originally seeded cell number.) | 0 × 10^5 | * (indicates the inhibitor causes significant cell death, and cell number is less than originally seeded cell number.) | 1.7 × 10^5 | 30 | 6 × 10^5 | * (indicates the inhibitor causes significant cell death, and cell number is less than originally seeded cell number.) | 0.7 × 10^5 | 92% | 2.8 × 10^5 | 48 | 0.5 × 10^5 | 81 | 1.9 × 10^5 | 80 | 1.2 × 10^5 | 43 | 0.6 ± 0.1 × 10^5 | 80 | 1.7 × 10^5 | cells that went to apoptosis upon treatment [1]: significant number; Treated (cell number × 10^5) [1]: 0.2 ± 0.05 × 10^5; cells that went to apoptosis upon treatment [2]: all; cells that went to apoptosis upon treatment [4]: significant number; % inhibiton [10]: 63%; Treated (cell number × 10^5) [11]: 2.7 × 10^5; % inhibiton [11]: 62%; cells that went to apoptosis upon treatment (KB oral cancer cells): all; Treated (cell number × 10^5) (KB oral cancer cells): 0 × 10^5; % inhibiton (KB oral cancer cells): * (indicates the inhibitor causes significant cell death, and cell number is less than originally seeded cell number.); inhibition of growth in contrast to untreated cells, range over the other treated cancer cells (human cancer cells): 43-92%
